Results taken from article PMC6442119, “The antitumor activity of CYB-L10, a human topoisomerase IB catalytic inhibitor” (Journal of Enzyme Inhibition and Medicinal Chemistry, 2019).
Entries after “also recorded” stand apart in the source; their conditions may differ.

How the values were obtained:
HT29 = assay: NCI60 assay; assay type: cell-based; conditions: Homo sapiens, HT-29; Colon cancer, HT29, 48 h
Description: (§1) CYB-L10 was tested using the protocols by the NCI, which has been described previously. […] The overall antiproliferative potential is quantified as a mean-graph midpoint (MGM). […] It was selected and submitted to National Cancer Institute (NCI, USA) for a developmental therapeutics assay against the 60 clinical tumor cell lines representing nine tissue types (NCI60)[23–25]. The tumor cells were incubated with CYB-L10 for 48 h and stained with sulphorhodamine B dye. Cell growth inhibition (GI50) was calculated relative to the control without compound.

UO-31 = assay: NCI60 assay; assay type: cell-based; conditions: Homo sapiens; Renal cancer, UO-31, 48 h
Description: as §1

IGROV1 = assay: NCI60 assay; assay type: cell-based; conditions: Homo sapiens, IGROV-1; Ovarian cancer, IGROV1, 48 h
Description: as §1

SW-620 = assay: NCI60 assay; assay type: cell-based; conditions: Homo sapiens; Colon cancer, SW-620, 48 h
Description: as §1

COLO 205 = assay: NCI60 assay; assay type: cell-based; conditions: Homo sapiens; Colon cancer, COLO 205, 48 h
Description: as §1

SNB-19 = assay: NCI60 assay; assay type: cell-based; conditions: Homo sapiens; CNS cancer, SNB-19, 48 h
Description: as §1

HOP-62 = assay: NCI60 assay; assay type: cell-based; conditions: Homo sapiens; Non-small cell lung cancer, HOP-62, 48 h
Description: as §1

NCI-H522 = assay: NCI60 assay; assay type: cell-based; conditions: Homo sapiens; Non-small cell lung cancer, NCI-H522, 48 h
Description: as §1

DU-145 [1] = assay: NCI60 assay; assay type: cell-based; conditions: Homo sapiens, Prostate cancer, DU-145, 48 h
Description: as §1

SK-MEL-28 = assay: NCI60 assay; assay type: cell-based; conditions: Homo sapiens; Melanoma, SK-MEL-28, 48 h
Description: as §1

786-0 = assay: NCI60 assay; assay type: cell-based; conditions: Homo sapiens; Renal cancer, 786-0, 48 h
Description: as §1

LOX IMVI = assay: NCI60 assay; assay type: cell-based; conditions: Homo sapiens, Melanoma, 48 h
Description: as §1

PC-3 = assay: NCI60 assay; assay type: cell-based; conditions: Homo sapiens; Prostate cancer, PC-3, 48 h
Description: as §1

MDA-MB-231/ATCC = assay: NCI60 assay; assay type: cell-based; conditions: Homo sapiens, Breast cancer, 48 h
Description: as §1

MOLT-4 = assay: NCI60 assay; assay type: cell-based; conditions: Homo sapiens; Leukemia, MOLT-4, 48 h
Description: as §1

NCI-H23 = assay: NCI60 assay; assay type: cell-based; conditions: Homo sapiens; Non-small cell lung cancer, NCI-H23, 48 h
Description: as §1

NCI-H322M = assay: NCI60 assay; assay type: cell-based; conditions: Homo sapiens, Non-small cell lung cancer, 48 h
Description: as §1

U251 = assay: NCI60 assay; assay type: cell-based; conditions: Homo sapiens, U-251; CNS cancer, U251, 48 h
Description: as §1

HS 578T = assay: NCI60 assay; assay type: cell-based; conditions: Homo sapiens, Breast cancer, 48 h
Description: as §1

T-47D = assay: NCI60 assay; assay type: cell-based; conditions: Homo sapiens, T47D, Breast cancer, 48 h
Description: as §1

RPMI-8226 = assay: NCI60 assay; assay type: cell-based; conditions: Homo sapiens; Leukemia, RPMI-8226, 48 h
Description: as §1

CCRF-CEM = assay: NCI60 assay; assay type: cell-based; conditions: Homo sapiens, Leukemia, 48 h
Description: as §1

[2] = system: 60 human clinical cancer cell lines (NCI60); assay: NCI60 assay, mean-graph midpoint; assay type: cell-based; conditions: NCI60, 48 h
Description: as §1

DU-145 [3] = assay: MTT assay; assay type: cell-based; conditions: Homo sapiens; Parental cell line DU-145, MTT, 72 h
HCT116 cells = assay: Apoptosis analysis, flow cytometry annexin V-FITC/PI; assay type: cell-based, human; conditions: 9 μM, 24 h
Description: HCT116 cells (3.0 × 10^5 cells/mL) were grown in culture medium on 6-well plates and incubated in the presence or absence of CYB-L10 (1, 3, and 9 µM) for 24 h. And then, the cells were harvested and washed with cold PBS buffer, resuspended in 1 × binding buffer, and then stained with 5 µL Annexin V-FITC and 5 µL propidium iodide (KeyGEN BioTECH, Nanjing, China) for 15 min in dark. The stained cells were analyzed by using flow cytometry (BD, FACSCalibur, Franklin Lakes, NJ, USA) within 1 h. The experiments were repeated independently for three times.
To estimate the effect of CYB-L10 on apoptosis, flow cytometry analysis using double staining with annexin V-FITC/PI was carried out for HCT116 cells. […] CYB-L10 induced the major population of HCT116 cells into the late apoptotic stage 47.39% at 9 μM concentration.

P-glycoprotein (Pgp) = P-glycoprotein (Pgp) (Homo sapiens, UniProt P08183); assay: Pgp substrate assessment in Pgp-overexpressing resistant sublines; conditions: from MCF-7/ADR and HepG2/ADR sublines with overexpressed Pgp
Chain of P-glycoprotein (Pgp) (P08183 whole entry): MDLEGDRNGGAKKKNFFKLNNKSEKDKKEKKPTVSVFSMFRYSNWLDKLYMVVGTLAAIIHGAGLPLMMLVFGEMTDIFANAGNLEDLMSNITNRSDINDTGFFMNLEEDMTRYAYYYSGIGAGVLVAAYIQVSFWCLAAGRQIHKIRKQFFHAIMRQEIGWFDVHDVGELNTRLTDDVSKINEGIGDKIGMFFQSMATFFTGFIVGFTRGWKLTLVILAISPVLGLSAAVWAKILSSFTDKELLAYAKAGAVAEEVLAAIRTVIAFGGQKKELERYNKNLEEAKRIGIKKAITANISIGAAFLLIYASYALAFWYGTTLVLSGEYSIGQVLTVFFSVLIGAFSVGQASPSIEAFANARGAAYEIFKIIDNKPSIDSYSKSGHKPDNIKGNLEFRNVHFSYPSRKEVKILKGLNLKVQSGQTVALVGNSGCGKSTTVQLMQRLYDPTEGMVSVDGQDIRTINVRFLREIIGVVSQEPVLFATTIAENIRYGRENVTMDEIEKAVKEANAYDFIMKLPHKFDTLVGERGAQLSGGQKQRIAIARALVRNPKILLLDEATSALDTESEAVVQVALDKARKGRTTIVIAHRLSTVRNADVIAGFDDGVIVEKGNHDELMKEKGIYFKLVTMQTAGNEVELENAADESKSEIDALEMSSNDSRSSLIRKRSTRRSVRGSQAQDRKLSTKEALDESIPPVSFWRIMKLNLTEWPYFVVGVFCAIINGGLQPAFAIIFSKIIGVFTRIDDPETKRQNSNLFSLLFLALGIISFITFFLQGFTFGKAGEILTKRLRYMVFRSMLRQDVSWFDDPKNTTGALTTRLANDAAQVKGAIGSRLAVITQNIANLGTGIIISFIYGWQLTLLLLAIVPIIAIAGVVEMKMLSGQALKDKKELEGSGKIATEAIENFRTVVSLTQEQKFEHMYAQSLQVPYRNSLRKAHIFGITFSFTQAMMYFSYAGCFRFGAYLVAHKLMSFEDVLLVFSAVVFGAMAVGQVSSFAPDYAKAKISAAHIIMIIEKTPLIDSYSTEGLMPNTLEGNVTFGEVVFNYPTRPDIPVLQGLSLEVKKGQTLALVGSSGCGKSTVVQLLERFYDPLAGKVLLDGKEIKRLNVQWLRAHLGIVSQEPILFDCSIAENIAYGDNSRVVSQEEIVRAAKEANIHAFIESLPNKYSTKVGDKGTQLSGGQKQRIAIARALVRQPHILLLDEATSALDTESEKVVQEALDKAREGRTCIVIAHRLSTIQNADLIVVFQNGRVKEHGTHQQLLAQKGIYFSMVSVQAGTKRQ

[4] = Pharmacokinetic study in rat; assay type: in vivo; conditions: male, Sprague-Dawley, plasma, SD rats
Description: Blood samples (200 µL) were collected into heparinized tubes via the jugular vein at the following times: 0.083, 0.25, 0.5, 1, 2, 5, 7, and 24 h after dosing. Plasma samples (100 µL) were obtained after centrifugation for 10 min at 3000 rpm and stored at −20 °C until used for analysis. The plasma was detected through LC-MS/MS.
The in vivo pharmacokinetic (PK) study of CYB-L10 was conducted in SD rats. The SD rats were divided into two groups (n = 2) and treated by i.v. injection at 1 mg/kg dose and i.g. at 5 mg/kg dose, respectively. The plasma samples were collected up to 24 h postdose and measured for the concentration of CYB-L10. By i.v. administration, the AUC0→∞ was 241 ± 40 h·ng/mL, and T1/2 was 18.4 ± 5.12 h.

Work on `O=C1c2cccnc2C(=O)c2c1c(C(=O)OCCN1CCOCC1)c1ccccn21` [CYB-L10] yielded a GI50 (HT29) of 580 nM, a GI50 (UO-31) of 13 nM and a GI50 (IGROV1) of 46.2 nM. It also gave a GI50 (SW-620) of under 10 nM, a GI50 (COLO 205) of 137 nM and a GI50 (SNB-19) of under 10 nM. The GI50 (HOP-62) was under 10 nM, the GI50 (NCI-H522) was 11.9 nM and the GI50 (DU-145 [1]) was 30.5 nM. The GI50 (SK-MEL-28) was 54.6 nM, the GI50 (786-0) was 29 nM and the GI50 (LOX IMVI) was under 10 nM. It also gave a GI50 (PC-3) of 190 nM, a GI50 (MDA-MB-231/ATCC) of 1620 nM and a GI50 (MOLT-4) of 217 nM. It also gave a GI50 (NCI-H23) of under 10 nM, a GI50 (NCI-H322M) of 97.7 nM and a GI50 (U251) of 10.9 nM. It also gave a GI50 (HS 578T) of 36.9 nM, a GI50 (T-47D) of 961 nM and a GI50 (RPMI-8226) of 166 nM. For the same compound, the GI50 (CCRF-CEM) was 379 nM, the “MGM (mean graph midpoint for growth inhibition of all human cancer cell lines)” value [2] was 0.050 µM and the GI50 (DU-145 [3]) was 16 ± 10 nM. The “A2 quadrant cells (late apoptotic stage)” value (HCT116 cells) was 47.39%, the “substrate of the Pgp” value (P-glycoprotein (Pgp)) was “not a substrate of the P-glycoprotein; also recorded: not to be a substrate of the Pgp” and the AUC(0-inf) ([4]; iv, i.v. 1 mg/kg) was 241 ± 40 ng·h/mL. The half-life ([4]; iv, i.v. 1 mg/kg) was 18.4 ± 5.12 h, the bioavailability ([4]; oral, i.g. 5 mg/kg vs i.v. 1 mg/kg, read-out: F (bioavailability)) was 6.3% and the AUC(0-inf) ([4]; po, i.g. 5 mg/kg) was 76 ± 16.5 ng·h/mL. It also gave a Cmax ([4]; po, i.g. 5 mg/kg) of 24.7 ± 6.59 ng/mL, a Tmax ([4]; po, i.g. 5 mg/kg) of 0.46 ± 0.1 h and a half-life ([4]; po, i.g. 5 mg/kg) of 18.4 ± 7.77 h.
